The results in this text go back to patent US8198273B2, “Compounds and methods for kinase modulation, and indications therefor” (Plexxikon Inc., priority 2009, dated 2012).

For series [1], the system named is COLO205 colon adenocarcinoma cells (B-Raf V600E). Nature of the series: COLO205 cell growth inhibition (ATPlite). The class given is cell-based. Particulars: Homo sapiens, COLO 205, 72 h; COLO205, 3 days incubation. The protocol:
(§1) Compounds are assessed in a variety of cell based assays. For example human cell lines with B-Raf V600E mutation (A375 melanoma, SKMEL3 melanoma, and COL0205 colon adenocarcinoma), as well as tumorigenic cell lines with wild-type B-RAF (SW620 colon adenocarcinoma) or with Ras mutations (SKMEL2 melanoma and IPC298 melanoma). Similar assays may be used to assess additional tumorigenic cell lines with Ras mutations, including, but not limited to, M202, M207, M243, M244, M296, S117, HCT116, HCT15, DLD1, MiaPaCa, A549, NCI-H23, NCI-H460, HOP62, MDA-MB231, Hs-578T, HL60, MOLT-4, and CCRF-CEM.
(§2) On day 1, cells are counted, then centrifuged in a conical tube for 5 minutes at 1000 rpm. The supernatant is removed and cells are re-suspended as follows: • SW620 (ATCC catalog #CCL-27): resuspend in Leibovitz's L-15 medium, 2 mM L-glutamine, 10% fetal bovine serum to 6×10^4 cells/mL. • A375 (ATCC catalog #CRL-1619): resuspend in Dulbecco's modified Eagle's medium, 4 mM L-glutamine, 4.5 g/L D-glucose, 10% fetal bovine serum to 6×10^4 cells/mL. • COL0205 (ATCC catalog #CCL-222): resuspend in RPMI 1640, 2 mM L-glutamine, 1.5 g/L sodium bicarbonate, 4.5 g/L D-glucose, 10 mM HEPES, 1.0 mM sodium pyruvate, 10% fetal bovine serum to 6×10^4 cells/mL. • SKMEL2 (ATCC catalog #HTB-68): resuspend in Minimum Eagle essential medium, 2 mM L-glutamine, 1.5 g/L sodium bicarbonate, 0.1 mM non-essential amino acids, 1.0 mM sodium pyruvate, 10% fetal bovine serum to 6×10^4 cells/mL. • SKMEL3 (ATCC catalog #HTB-69): resuspend in McCoy's 5A medium, 1.5 mM L-glutamine, 15% fetal bovine serum to 6×10^4 cells/mL. • IPC298 (DSMZ catalog #ACC 251): resuspend in RPMI 1640, 2 mM L-glutamine, 10% fetal bovine serum to 6×10^4 cells/mL.
(§3) The cells are plated, 50 μL in each well of a 96-well dish (Corning 3610) and incubated at 37° C. in 5% CO2 overnight, cells plated to a final concentration of cells as follows:
(§4) On day 2, compound at a maximum concentration of 5 mM is serially diluted 1:3 for a total of 8 point titration with DMSO as a control. A 1 μL aliquot of each dilution point and control is added to 249 μL growth media and 50 μL is added to a well containing cells, providing 10 μM compound at the maximum concentration point. The cells are incubated for 3 days at 37° C. in 5% CO2.
(§5) On day 5, ATPlite 1 step Luminescence Assay System (Perkin Elmer #6016739) is brought to room temperature along with the cell cultures. ATPlite is added 25 μL to each well, shake for 2 minutes, and the cells are incubated at room temperature for 10 minutes, then luminescence is read on Safire reader. The measured luminescence correlates directly with cell number, such that the reading as a function of compound concentration is used to determine the IC50 value.
(§6) It is understood that the results of these assays may vary as assay conditions are varied. Inhibition levels determined under the conditions described herein represent a relative activity for the compounds tested under the specific conditions employed. The cell based assays are likely to show variability due to the complexity of the system and the sensitivity thereof to any changes in the assay conditions. […] Results for compounds that are tested and show substantially no inhibition below the highest tested concentration are represented as “-” in the tables below. In some instances, the compounds were not tested in all of the assays, or assay results were not valid, as indicated by NA in the tables below.

Series [2] deals with A375 melanoma cells (B-Raf V600E). Briefly: A375 cell growth inhibition (ATPlite). The class given is cell-based. Particulars: Homo sapiens, A-375, 72 h; A375, 3 days incubation. The method in brief: (§7)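 ATPlite luminescence, taken as a cell-number measure, gave IC50 values after a 3-day 37° C, 5% CO2 incubation. Compounds were tested as 8-point threefold titrations, highest final concentration 10 μM, added to cells seeded the day before.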
(ATP-based viability assays read luminescence as a measure of living cells.)

A further series addresses CYP3A4(BFC) (Homo sapiens, UniProt P08684). Briefly: CYP3A4(BFC) inhibition (fluorescent substrate). The class given is in vitro ADME. Particulars: read-out: Cyp IC50 3A4(BFC). The protocol: (§8) CYP (Cytochrome P450) enzymes are the major drug metabolizing enzymes present in the liver. The inhibition of CYP enzyme activity (IC50) for each of CYP1A2, CYP2C19, CYP2C9, CYP2D6, CYP3A4(BFC) and CYP3A4(BQ) is determined for compounds, where inhibition of metabolism of a known substrate leads to a decrease in the fluorescence of the metabolized product. The fluorescence of the product is monitored as a function of compound concentration. Compounds are dissolved in dimethyl sulfoxide to a concentration of 100 mM. These are diluted 1 μL into 82 μL of acetonitrile. […] These are then serially diluted 1:1 (160 μL to 160 μL co-factor mix) for a total of 10 points. A 10 μL aliquot of this final mixture is dispensed into 384 well assay plates and incubated for 10 minutes at 37° C. […] Assay plates are incubated at 37° C. […] The signal versus compound concentration is used to determine the IC50. The enzymes and substrates for this assay are obtained from BD Biosciences.

In series [3] the test system is SKMEL2 melanoma cells (Ras mutation). Briefly: SKMEL2 cell growth inhibition (ATPlite). Particulars: Homo sapiens, SK-MEL-2, 72 h; SKMEL2, 3 days incubation. The class given is cell-based. How it is done: as §1, §2, §3
SKMEL2: 2,000 cells per well.
as §4, §5, §6

The target in a further series is CYP3A4(BQ) (Homo sapiens, UniProt P08684). Briefly: CYP3A4(BQ) inhibition (fluorescent substrate). The class given is in vitro ADME. The conditions noted are these: read-out: Cyp IC50 3A4(BQ). How it is done:
as §8

Series [4] concerns SW620 colon adenocarcinoma cells (wild-type B-RAF). Nature of the series: SW620 cell growth inhibition (ATPlite). The class given is cell-based. Particulars: Homo sapiens, SW-620, 72 h; SW620, 3 days incubation. The method, boiled down: as §7
Series [5] is described as follows: Relative solubility by turbidity in aqueous buffers of varying pH. The class given is physicochemical. How it is done: As an indication of relative solubility, the turbidity of compounds in aqueous solutions is assessed. To assess possible compound properties in different physiological compartments, such as stomach, intestine, and blood, a series of aqueous buffers with varying pH is used. Thus each compound is diluted into four different physiologically relevant buffers and solution turbidity is measured by spectrophotometry.
Compounds are dissolved at a concentration of 25 mM in dimethyl sulfoxide, then serially diluted 1:1 into a 96 well plate, diluting 10 times in pure dimethyl sulfoxide, with the final well of each row a dimethyl sulfoxide blank. In an assay plate, 99 μL of appropriate buffer is added to each well, and 1 μL of each sample dilution is added to the buffer, achieving a range of final total concentrations in aqueous solutions having different pH. The buffers used are Simulated Gastric Fluid (SGF-pH 1.5) 0.5M NaCl, pH 1.5; Simulated Intestinal fluid (SIF-pH 4.5 and pH 6.8) 0.05M NaH2PO4, pH 4.5 and 6.8; and Hepes Buffer (HEPES-pH 7.4) 10 mM HEPES, 150 mM NaCl, pH 7.4. Control compounds pyrene, estriol and propranolol HCl are also assessed. Plates are spun and then mixed for 1 minute, and the absorbance is read using a Tecan Safire II to read wavelengths in the visible range (490, 535, and 650 nm) at four locations per well, reflecting the degree of turbidity present. The average optical density for each wavelength in each well is graphed vs. compound concentration, and the concentration at which the curve crosses a threshold O.D. of 0.01 for each wavelength is reported as the endpoint turbidity assay result. The average of the three wavelengths is used to compare turbidity of compounds. Compounds are considered to have low solubility if the threshold concentration is <31.3 04, moderate solubility if the threshold concentration is 31.3 μM to 250 μM, and high solubility if the threshold concentration is >250 μM.

A further series deals with Colo205 xenograft. Nature of the series: Colo205 xenograft mouse model, tumor growth inhibition. The format is in vivo. Particulars: COLO 205, 336 h, female nu/nu mice, 10 mg/kg daily for fourteen days. How it is done:
Tumor growth is monitored to approximately 100 mg size, and mice are distributed to treatment groups such that the mean tumor burden within a group is within 10% of the overall mean tumor burden. […] Mice are observed daily, with tumor burden and body weights measured twice a week. Animals with tumor burden above 1500-2000 mg and any animals in moribund condition are euthanized. The average tumor growth of vehicle control group mice is compared to the average tumor growth of the test compound mice. Percent tumor growth inhibition is calculated as 100×[(tumor growth control-tumor growth test compound)/tumor growth control].

Sequence of CYP3A4(BFC) (P08684 whole entry): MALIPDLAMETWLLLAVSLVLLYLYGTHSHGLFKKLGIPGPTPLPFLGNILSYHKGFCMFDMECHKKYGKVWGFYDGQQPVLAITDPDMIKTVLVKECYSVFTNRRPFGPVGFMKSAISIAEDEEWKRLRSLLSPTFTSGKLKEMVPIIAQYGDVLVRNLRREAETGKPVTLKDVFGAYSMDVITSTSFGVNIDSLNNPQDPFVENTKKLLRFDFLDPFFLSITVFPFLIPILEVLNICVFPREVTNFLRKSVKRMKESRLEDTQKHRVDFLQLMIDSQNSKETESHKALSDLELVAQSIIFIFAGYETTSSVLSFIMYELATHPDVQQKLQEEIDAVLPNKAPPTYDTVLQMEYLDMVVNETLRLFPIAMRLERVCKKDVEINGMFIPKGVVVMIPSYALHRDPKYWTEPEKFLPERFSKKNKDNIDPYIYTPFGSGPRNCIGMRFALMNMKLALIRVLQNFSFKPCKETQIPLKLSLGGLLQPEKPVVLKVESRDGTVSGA
Sequence of CYP3A4(BQ) (P08684 whole entry): as above

As a reminder, the IC50 is the concentration that inhibits the measured activity by half. By inhibition in vivo is commonly meant the drop in the measured response relative to a control, in per cent. A higher inhibition in vivo goes with a response far below the control. For `O=C(c1c(F)ccc(NS(=O)(=O)c2cccnc2)c1F)c1c[nH]c2ncc(Cl)cc12` [P-2071, Pyridine-3-sulfonic acid [3-(5-chloro-1H-pyrrolo[2,3-b]pyridine-3-carbonyl)-2,4-difluoro-phenyl]-amide], the IC50 in series [1] was under 1 µM; in series [2] it was under 1 µM; at CYP3A4(BFC), under 5 µM; in series [3], over 10 µM; at CYP3A4(BQ), under 5 µM; in series [4], over 10 µM. Further, the “turbidity threshold (L, M, H) 7.4” value in series [5] (HEPES pH 7.4) is recorded as “M (moderate solubility if the threshold concentration is 31.3 μM to 250 μM)”. The “turbidity threshold (L, M, H) 4.5” value in series [5] (SIF pH 4.5) is reported as “M (moderate solubility if the threshold concentration is 31.3 μM to 250 μM)”. Further, in series [5] (SIF pH 6.8), the “turbidity threshold (L, M, H) 6.8” value is listed as “M (moderate solubility if the threshold concentration is 31.3 μM to 250 μM)”. In series [5] (buffer pH 1.4 (SGF)), the “turbidity threshold (L, M, H) 1.4” value is “M (moderate solubility if the threshold concentration is 31.3 μM to 250 μM)”. The inhibition in vivo at 10 mg/kg in the series on Colo205 xenograft turned out to be 59%.
